# Test results published in US20130045943A1, “A3AR AGONISTS FOR THE TREATMENT OF UVEITIS” (THE GOVERNMENT OF THE UNITED STATES OF AMERICA AS …, priority 2010, published 2013).
# “Also recorded” adds a separate entry of the source.
# How the values were obtained:
# [1] = tested on: experimental acute uveitis (EAU) induced with IRBP in C57BL/6j mice; assay: EAU in mice, histopathological grading of enucleated eyes; assay type: in vivo
# Water solubility = assay type: physicochemical
# [2] = tested on: antigen-specific (IRBP) responses of T cells; assay: In vitro antigen-driven proliferation assay (3[H]-thymidine incorporation) of drain lymph node cells from treated mice; assay type: cell-based, C57BL/6j mice; details: lymph node cells from treated animals, cultured 48 hours with IRBP 0.2-20 μg/ml
# Procedure: To explore the immunological effects of IB-MECA on the antigen-specific responses of T cells, an in vitro antigen-driven proliferation assay was performed. Drain lymph nodes (inguinal and iliac) were collected from the IRBP immunized mice, both from the vehicle and from the IB-MECA treated groups. The cells were cultured for 48 hours in the presence of graded doses of IRBP (0.2-20 μg/ml) and proliferation was evaluated by an ^3[H]-thymidine incorporation assay.
# [3] = tested on: experimental acute uveitis (EAU) induced with IRBP in C57BL/6j mice; assay: Experimental autoimmune uveitis (EAU) in mice, disease intensity scored by funduscopy; assay type: in vivo; details: for inhibition of fundoscopy score: oral IB-MECA 10 μg/kg twice daily from day 7
compound,measurement,setting,value
"CNC(=O)[C@H]1OC(n2cnc3c(NCc4cccc(I)c4)ncnc32)[C@H](O)[C@@H]1O (stereo partly drawn) [IB-MECA, 1-Deoxy-1-[6-[[(3-iodophenyl)methyl]amino]-9H-purine-9-yl]-N-methyl-D-ribofuranuronamide]",histopathological score of EAU (FIG. 2),[1]; result in words,decreased
same,inhibition of pathological score in comparison to the vehicle-treated group,"[1]; upon study termination, oral IB-MECA 10 μg/kg twice daily from day 7",53%
same,water solubility,Water solubility,not water soluble
same,T cell response to IRBP (proliferation),[2],moderate response; also recorded: ameliorates
same,inhibition of fundoscopy score,[3]; day 16 after immunization,91%
same,inhibition of fundoscopy score,[3]; day 20 after immunization,49.4%
same,development of EAU (FIG. 1),[3]; result in words,inhibited
